Tests used:
Type in all cases: cell-based, rat
[1] = tested on: TNF-α; assay: Western blotting of TNF-α secretion in culture medium of Rg1-stimulated splenocytes; conditions: 5 μg/ml Rg1, culture medium
Procedure: (§1) Rats were placed under deep ether anesthesia and exsanguinated via the abdominal aorta. Spleen was removed by aseptic techniques before washed twice in 10 mL of RPMI-1640 (Gibco, U.S.A.) medium containing 1000 U/mL penicillin-streptomycin (PS) (Gibco, U.S.A.). Spleens were then cut into small pieces before being sucked up and down with a plunger in a plastic syringe. Single cell suspension was prepared and placed into the same medium containing 1000 U/mL PS, and 5% acid citric dextrose. Splenocytes were then isolated by gradient centrifugation by layering the single cell suspension onto Ficoll-Paque Plus gradient (Amersham Bioscience, H.K. Ltd.) and spun at 400 g for 35 minutes at room temperature. The splenocytes-containing fraction was collected. […]
(§2) Supernatants of splenocytes cell culture with and without Rg1 incubation were harvested at different time points and used for the detection of TNF-α and IFN-γ. […] The protein content of the supernatant/lysate was determined by the Bradford method (Bio-Rad Laboratory, U.S.A.). For each analysis, 350 μg of protein was analyzed by a 12.5% reducing SDS-PAGE gel ran at a constant voltage (150V) for 1 hour. […] Positive binding was detected using the SuperSignal West Pico Chemiluminescent Kit (Pierce, U.S.A.) and the exposed X-ray films (Kodak) were scanned with a Molecular Dynamics Densitometer (Bio-Rad Laboratories, U.S.A.).

[2] = tested on: IFN-γ; assay: Western blotting of IFN-γ secretion in culture medium of Rg1-stimulated splenocytes; conditions: 5 μg/ml Rg1, culture medium, 24 hour
Procedure: as §1, §2

[3] = tested on: iNOS; assay: Western blotting of iNOS expression in splenocyte lysate after Rg1 stimulation; conditions: 5 μg/ml Rg1, splenocyte lysate
Procedure: as §1, §2

[4] = tested on: TNF-α; assay: ELISA of TNF-α secretion from splenocytes with and without Rg1
Procedure: as §1, with “collected. Erythrocytes were lyzed by adding four volumes of ice-cold ammonium chloride solution (pH 7.4) at room temperature for 5 minutes and splenocytes were washed twice in plain medium.” for “collected.”
(§3) IFN-γ as well as TNF-α ELISA assays were performed using the OptiEIATM rat IFN-γ and TNF-α kits (Pharmigen, U.S.A.). […] After the addition of avidin-HRP conjugate, color was developed by the addition of 2,2-Azin-bis-3-thylbenzthiazoline-6-sulfonic acid and the color change was monitored at an absorbance of 405 nm with a Microplate Reader (Bio-Rad Laboratories, U.S.A.) The amount of INF-γ and TNF-α were calculated by comparing with the standard.

[5] = tested on: IFN-γ; assay: ELISA of IFN-γ secretion from splenocytes with and without Rg1
Procedure: as §1, with “collected. Erythrocytes were lyzed by adding four volumes of ice-cold ammonium chloride solution (pH 7.4) at room temperature for 5 minutes and splenocytes were washed twice in plain medium.” for “collected.”
as §3

[6] = tested on: splenocytes; assay: 2-DE (Two-in-one gel) / MALDI-TOF MS analysis of differential protein expression in splenocyte lysates
Procedure: Rats were placed under deep ether anesthesia and exsanguinated via the abdominal aorta. Spleen was removed by aseptic techniques before washed twice in 10 mL of RPMI-1640 (Gibco, U.S.A.) medium containing 1000 U/mL penicillin-streptomycin (PS) (Gibco, U.S.A.). Spleens were then cut into small pieces before being sucked up and down with a plunger in a plastic syringe. Single cell suspension was prepared and placed into the same medium containing 1000 U/mL PS, and 5% acid citric dextrose. Splenocytes were then isolated by gradient centrifugation by layering the single cell suspension onto Ficoll-Paque Plus gradient (Amersham Bioscience, H.K. Ltd.) and spun at 400 g for 35 minutes at room temperature. The splenocytes-containing fraction was collected. Erythrocytes were lyzed by adding four volumes of ice-cold ammonium chloride solution (pH 7.4) at room temperature for 5 minutes and splenocytes were washed twice in plain medium. Lymphocytes were stained with Wright-Giema stain before examination under light microscope. Cell viability and number were examined after trypan blue staining under the light microscope. Splenocytes (1×10^6) were cultured in complete RPMI-1640 medium containing 1000 U/mL PS, supplemented with 2 g/L sodium carbonate. Cells were re-suspended in the same medium with 10% FCS (Gibco, U.S.A.) and subjected to various treatments after 24 hours incubation.
Rg1 (dosage of 5 μg/mL) was added to splenocytes in PBS buffer in 6-well flat-bottomed plates (Nunc Maxisorp, U.S.A.) in a 5% CO2 incubator at 37° C. Samples of conditioned media from the incubation mixture were harvested at varying time points (from 12-72 hours). These samples were kept at −80° C. until use. No sample was kept for more than 2 months. Besides Western Blotting, global protein expression in samples of Rg1 treated splenocytes (at 12 hours and 24 hours intervals) were also performed using 2-DE analysis. Cells incubated with PBS for 24 hours were used as control.
Splenocytes on culture dishes were rinsed once with RPMI-1640 after incubation with or without Rg1. Subsequently, […] trypsin containing 0.2 g/L EDTA was added and allowed to incubate for 3 min. Cells were then collected by centrifugation at 1,000 g for 5 minutes and washed with PBS (pH 7.2) twice. Splenocytes were then lysed with a minimal amount of lysis buffer (usually 200 μl) containing 4% Triton X-100, 9 M urea, and 1 mM PMSF for 10 minutes on ice. The supernatant was collected by centrifugation at 3,000 g for 10 minutes and protein contents were measured by a modified Bradford method using a protein assay kit by Bio-Rad Laboratories, U.S.A. Cell lysates from different animals with the same treatment were pooled together at a protein ratio of 1:1 and was used for 2-DE analysis. 120 μg of splenocytes lysate [in a buffer containing 9M Urea, 2% w/v Triton X-100, 0.5% w/v DDT (Sigma, U.S.A.), 0.4% v/v IPG buffer 4-7 (Amersham Pharmacia Biotech, Uppsala, Sweden) and trace amount of bromophenol blue to a final volume of 300 μl] was used for in-gel sample rehydration.
Samples were applied onto IPG strips pH 4-7 (3×170 mm, Bio-Rad Laboratories, U.S.A.). Rehydration and subsequent isoelectric focusing was performed using either a Protean IEF Cell (Bio-Rad Laboratories, U.S.A.) or an IPGphor (Amersham Biosciences, U.S.A.). Rehydration was performed at room temperature for 16 hour at 50 V in the IPG strip holder covered with low viscosity paraffin oil. Isoelectric focusing was then performed using 500 V (1 hour), 1000 V (1 hour), 4000 V (2 hour) and 8000 V (2 hour) sequentially. Strips were then equilibrated in […] Tris-HCl equilibration buffer, pH 6.8, containing 1% (w/v) DTT (Sigma, U.S.A.), 9M urea, 30% v/v glycerol, 2% w/v SDS and a trace amount of bromophenol blue for 10 minutes. […]

[7] = 5 μg/mL Rg1, ELISA time course 12-72 hours
[8] = 5 μg/mL Rg1, ELISA, versus splenocytes without Rg1
[9] = Rg1 24 hours versus PBS control
[10] = Rg1 treated versus normal sample, Two-in-one gels

## CC(C)=CCC[C@](C)(O[C@@H]1O[C@H](CO)[C@@H](O)[C@H](O)[C@H]1O)[C@H]1CC[C@]2(C)[C@@H]1[C@H](O)C[C@@H]1[C@@]3(C)CC[C@H](O)C(C)(C)[C@@H]3[C@@H](O[C@@H]3O[C@H](CO)[C@@H](O)[C@H](O)[C@H]3O)C[C@]12C [Rg1]
[1]; 24 hour
  TNF-α detection by Western blotting: detected
[1]; 48 hour
  TNF-α detection by Western blotting: detected
[2]
  IFN-γ detection by Western blotting: detected
[3]; 12 hour
  iNOS detection by Western blotting: detected
[3]; 24 hour
  iNOS detection by Western blotting: detected
[4]; [7]
  incubation time at which TNF-α level reached a maximum: 24 h
[4]; [8]
  increase in quantity of TNF-α after Rg1 induction: more than 1000 fold
[5]; [7]
  incubation time at which IFN-γ level reached a maximum: 24 h
[5]; [8]
  increase in quantity of IFN-γ after Rg1 induction: more than 1000 fold
[6]; 24 hours incubation with Rg1, about 102 spots in normal sample
  number of protein spots detected on the gel half run with the Rg1 treated sample: 122
[6]; [9]
  Regulation of Alpha-mannosidase II (spot 6): Up-
  Regulation of Cytochrome C oxidase polypeptide IV precursor (spot 2): Up-
  Regulation of DNA polymerase beta (spot 3): Up-
  Regulation of Guanine nucleotide-binding protein G (spot 4): Up-
  Regulation of Homeotic protein LH-2 (spot 1): Up-
  Regulation of T-cell surface glycoprotein CD5 precursor (spot 5): Up-
[6]; [10]
  number of protein spots down-regulated: 38
  number of proteins up-regulated: 87
  number of spots without significant apparent changes: 38

Source: patent publication US20090068687A1, “Screening platform for discovery of immunomodulatory activities in traditional medicine” (The Hong Kong Polytechnic University, priority 2004, published 2009)
